Source: patent US8987195B2 (priority 2012, dated 2015)

How the values were obtained:
[1] = system: HCV genotype 1b replicon; assay: HCV replicon assay, genotype 1b replicon EC50; type: cell-based, Hepatitis C virus; conditions: Hepatitis C virus, genotype 1b replicon; read-out: EC50 [gt-1b]
Procedure: Measuring Compound Inhibitory Potency (Genotype 1b Replicon EC50 (nM))
Measurement of inhibition by compounds was performed using the HCV replicon system. Several different replicons encoding different HCV genotypes or mutations were used. In addition, potency measurements were made using different formats of the replicon assay, including different ways of measurements and different plating formats. See Jan M. Vrolijk et al., A replicons-based bioassay for the measurement of interferons in patients with chronic hepatitis C, 110 J. VIROLOGICAL METHODS 201 (2003); Steven S. Carroll et al., Inhibition of Hepatitis C Virus RNA Replication by 2′-Modified Nucleoside Analogs, 278(14) J. BIOLOGICAL CHEMISTRY 11979 (2003). However, the underlying principles are common to all of these determinations, and are outlined below.
Stable neomycin phosphotransferase encoding replicon-harboring cell lines were used, so all cell lines were maintained under G418 selection prior to the assay. In some cases the cell lines encoded a luciferase:Neo^r fusion and could be assayed either directly by determination of RNA copy number, or indirectly through measurement of the luciferase activity.
To initiate an assay, replicon cells were plated in the presence of a dilution series of test compound in the absence of G418. Typically, the assays were performed in a 96-well plate format for manual operation, or a 384 well plate in an automated assay. Replicon cells and compound were incubated for 24-48 hours, depending on the assay. At the end of the assay, cells are washed free of media and compound and then lysed. For direct quantitation, RNA levels were measured by ^32P-probe hybridization and protection, or in a TAQMAN based assay and normalized to cellular cyclophilin A RNA levels. In some cases, luciferase activity was measured using a conventional luciferase assay. In all cases EC50 determinations were calculated as a percent of a DMSO control by fitting the data to a four parameter fit function.

[2] = molecular target: HCV NS3/4A protease genotype 1b (Hepatitis C virus genotype 1b, UniProt P26663); assay: HCV NS3/4A protease time-resolved fluorescence (TRF) assay, Ki against genotype 1b; type: biochemical
Sequence of HCV NS3/4A protease genotype 1b (P26663 1027-1657): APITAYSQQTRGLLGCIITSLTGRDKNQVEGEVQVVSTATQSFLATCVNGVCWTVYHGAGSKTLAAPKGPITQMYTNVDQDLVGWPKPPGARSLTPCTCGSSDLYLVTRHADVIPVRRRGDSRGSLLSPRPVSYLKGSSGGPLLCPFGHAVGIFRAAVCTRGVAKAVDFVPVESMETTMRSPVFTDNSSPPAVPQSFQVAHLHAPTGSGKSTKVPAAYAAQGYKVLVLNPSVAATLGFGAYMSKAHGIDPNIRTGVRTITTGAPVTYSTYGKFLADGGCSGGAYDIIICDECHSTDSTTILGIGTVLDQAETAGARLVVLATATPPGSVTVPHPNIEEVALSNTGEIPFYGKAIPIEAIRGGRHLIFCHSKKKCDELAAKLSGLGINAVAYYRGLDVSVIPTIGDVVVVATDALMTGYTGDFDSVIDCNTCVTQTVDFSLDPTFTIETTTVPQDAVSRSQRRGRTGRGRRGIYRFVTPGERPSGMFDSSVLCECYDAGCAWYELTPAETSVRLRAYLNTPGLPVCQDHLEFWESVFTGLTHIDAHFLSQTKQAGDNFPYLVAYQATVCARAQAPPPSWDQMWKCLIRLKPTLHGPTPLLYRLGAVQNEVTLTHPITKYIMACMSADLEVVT
Sequence of HCV NS3/4A protease genotype 1b (P26663 1658-1711): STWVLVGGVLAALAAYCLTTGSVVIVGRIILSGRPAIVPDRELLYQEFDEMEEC
Outline: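 Ki values come from IC50 fits corrected for substrate concentration and KM. The time-resolved fluorescence protease reaction used 25 nM peptide substrate, 2.5 h, room temperature, pH 7.5 HEPES buffer, after 30 min enzyme–inhibitor preincubation.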

[3] = IC50 [gt-1b], NS3/4A protease TRF assay, genotype 1b enzyme 0.2 nM
[4] = IC50 [gt-1b] (nM), NS3/4A genotype 1b, enzyme 0.2 nM

CC(C)(C)OC(=O)N[C@H]1CCCCC/C=C\C2CC2(C(=O)NS(=O)(=O)C2(C)CC2)NC(=O)C2C[C@]3(CCc4c(c(C5CC5)nc5ccccc45)O3)CN2C1=O (stereo partly drawn) [Example 18, tert-Butyl (2R,6S,13aS,14aR,16aS,Z)-5′-cyclopropyl-14a-(1-methylcyclopropylsulfonylcarbamoyl)-5,16-dioxo-1′,2′,3,5,6,7,8,9,10,11,13a,14,14a,15,16,16a-hexadecahydro-1H-spiro[cyclopropa[e]pyrrolo[1,2-a][1,4]diazacyclopentadecine-2,3′-pyrano[2,3-c]quinoline-]-6-ylcarbamate]
EC50 [1]: 0.77 nM

CC1(S(=O)(=O)NC(=O)[C@@]23C[C@H]2/C=C\CCCCC[C@H](NC(=O)OC2CCCC2)C(=O)N2C[C@@]4(CCc5c(c(-c6cccc(F)c6)nc6ccccc56)O4)C[C@H]2C(=O)N3)CC1 [Example 81, cyclopentyl [(2R,6S,12Z,13aS,14aR,16aS)-5′-(3-fluorophenyl)-14a-{[(1-methylcyclopropyl)sulfonyl]carbamoyl}-5,16-dioxo-1,1′,2′,5,6,7,8,9,10,11,13a,14,14a,15,16,16a-hexadecahydrospiro[cyclopropa[e]pyrrolo[1,2-a][1,4]diazacyclopentadecine-2,3′-pyrano[2,3-c]quinolin]-6-yl]carbamate]
EC50 [1]: 1.33 nM

CC1(S(=O)(=O)NC(=O)[C@@]23C[C@H]2/C=C\CCCCC[C@H](NC(=O)CC(F)(F)F)C(=O)N2C[C@@]4(CCc5c(c(-c6cccc(F)c6)nc6ccccc56)O4)C[C@H]2C(=O)N3)CC1 [Example 24, (2R,6S,13aS,14aR,16aS,Z)-5′-(3-Fluorophenyl)-N-(1-methylcyclopropylsulfonyl)-5,16-dioxo-6-(3,3,3-trifluoropropanamido)-1′,2′,3,5,6,7,8,9,10,11,13a,14,14a,15,16, 16a-hexadecahydro-1H-spiro[cyclopropa[e]pyrrolo[1,2-a][1,4]diazacyclopentadecine-2,3′-pyrano[2,3-c]quinoline]-14a-carboxamide]
EC50 [1]: 5.92 nM

CC(C)(C)OC(=O)N[C@H]1CCCCC/C=C\[C@@H]2C[C@@]2(C(=O)NS(=O)(=O)C2CC2)NC(=O)[C@@H]2C[C@]3(CCc4c(c(-c5cccc(F)c5)nc5ccccc45)O3)CN2C1=O [Example 15, tert-Butyl (2R,6S,13aS,14aR,16aS,Z)-14a-(cyclopropylsulfonylcarbamoyl)-5′-(3-fluorophenyl)-5,16-dioxo-1′,2′,3,5,6,7,8,9,10,11,13a,14,14a,15,16,16a-hexadecahydro-1H -spiro[cyclopropa[e]pyrrolo[1,2-a][1,4]diazacyclopentadecine-2,3′-pyrano[2,3-c]quinoline]-6-ylcarbamate]
EC50 [1]: 9.36 nM

Cc1nc2ccccc2c2c1O[C@]1(CC2)C[C@H]2C(=O)N[C@]3(C(=O)NS(=O)(=O)C4(C)CC4)C[C@H]3/C=C\CCCCC[C@H](NC(=O)NC(C)(C)C)C(=O)N2C1 [Example 76, (2R,6S,12Z,13aS,14aR,16a5)-6-[(tert-butylcarbamoyl)amino]-5′-methyl-N-[(1-methylcyclopropyl)sulfonyl]-5,16-dioxo-1,1′,2′,6,7,8,9,10,11,13a,14,15,16,16a-tetradecahydrospiro[cyclopropa[e]pyrrolo[1,2-a][1,4]diazacyclopentadecine-2,3′-pyrano[2,3-c]quinoline]-14a(5H)-carboxamide]
EC50 [1]: 11.9 nM

COc1ccc2nc(C(F)(F)F)c3c(c2c1)[C@](C)(O)C[C@]1(C[C@H]2C(=O)N[C@]4(C(=O)NS(=O)(=O)C5(C)CC5)C[C@H]4/C=C\CCCCC[C@H](NC(=O)OCC(C)C)C(=O)N2C1)O3 [Example 505, 2-methylpropyl [(1′R,2S,6S,12Z,13aS,14aR,16aS)-1′-hydroxy-9′-methoxy-1′-methyl-14a-{[(1-methylcyclopropyl)sulfonyl]carbamoyl}-5,16-dioxo-5′-(trifluoromethyl)-1,1′,2′,5,6,7,8,9,10,11,13a,14,14a,15,16,16a-hexadecahydrospiro[cyclopropa[e]pyrrolo[1,2-a][1,4]diazacyclopentadecine-2,3′-pyrano[2,3-c]quinolin]-6-yl]carbamate]
IC50 [2, 3]: 0.016 nM

COc1ccc2nc(C(F)(F)F)c3c(c2c1)[C@](C)(O)C[C@]1(C[C@H]2C(=O)N[C@]4(C(=O)NS(=O)(=O)C5(C)CC5)C[C@H]4/C=C\CCCCC[C@H](NC(=O)OCC(C)(C)C)C(=O)N2C1)O3 [Example 506, 2,2-dimethylpropyl [(1′R,2S,6S,12Z,13aS,14aR,16aS)-1′-hydroxy-9′-methoxy-1′-methyl-14a-{[(1-methylcyclopropyl)sulfonyl]carbamoyl}-5,16-dioxo-5′-(trifluoromethyl)-1,1′,2′,5,6,7,8,9,10,11,13a,14,14a,15,16,16a-hexadecahydrospiro[cyclopropa[e]pyrrolo[1,2-a][1,4]diazacyclopentadecine-2,3′-pyrano[2,3-c]quinolin]-6-yl]carbamate]
IC50 [2, 3]: 0.015 nM

Cc1nc2ccc(OC(F)(F)F)cc2c2c1O[C@]1(CC2)C[C@H]2C(=O)N[C@]3(C(=O)NS(=O)(=O)C4(C)CC4)C[C@H]3/C=C\CCCCC[C@H](NC(=O)OC3(C)CCCC3)C(=O)N2C1 [Example 209, 1-methylcyclopentyl [(2R,6S,12Z,13aS,14aR,16aS)-5′-methyl-14a-{[(1-methylcyclopropyl)sulfonyl]carbamoyl}-5,16-dioxo-9′-(trifluoromethoxy)-1,1′,2′,5,6,7,8,9,10,11,13a,14,14a,15,16,16a-hexadecahydrospiro[cyclopropa[e]pyrrolo[1,2-a][1,4]diazacyclopentadecine-2,3′-pyrano[2,3-c]quinolin]-6-yl]carbamate]
IC50 [2, 4]: 0.03 nM

COc1ccc2nc(C(F)F)c3c(c2n1)CC[C@]1(C[C@H]2C(=O)N[C@]4(C(=O)NS(=O)(=O)C5(C)CC5)C[C@H]4/C=C\CCCCC[C@H](NC(=O)OC(C)(C)C)C(=O)N2C1)O3 [Example 12, tert-Butyl ((2R,6S,13aS,14aR,16aS,Z)-6′-(difluoromethyl)-2′-methoxy-14a-(((1-methylcyclopropyl)sulfonyl)carbamoyl)-5,16-dioxo-3,5,6,7,8,9,9′,10,10′,11,13a,14,14a, 15,16,16a-hexadecahydro-1H-spiro[cyclopropa[e]pyrrolo[1,2-a][1,4]diazacyclopentadecine-2,8′-pyrano[2,3-c][1,5]naphthyridin]-6-yl)carbamate]
IC50 [2, 4]: 0.007 nM

Cc1nc2cc(F)c(F)cc2c2c1O[C@]1(CC2)C[C@H]2C(=O)N[C@]3(C(=O)NS(=O)(=O)C4(C)CC4)C[C@H]3/C=C\CCCCC[C@H](NC(=O)OC3CCCCC3)C(=O)N2C1 [Example 203, cyclohexyl [(2R,6S,12Z,13aS,14aR,16aS)-8′,9′-difluoro-5′-methyl-14a-{[(1-methylcyclopropyl)sulfonyl]carbamoyl}-5,16-dioxo-1,1′,2′,5,6,7,8,9,10,11,13a,14,14a,15,16,16a-hexadecahydrospiro[cyclopropa[e]pyrrolo[1,2-a][1,4]diazacyclopentadecine-2,3′-pyrano[2,3-c]quinolin]-6-yl]carbamate]
IC50 ([2]; IC50 [gt-1b] (nM), NS3/4A genotype 1b, enzyme 0.2 nM, K+ salt): 0.015 nM
